From patent publication US20090191636A1, “Method of Producing Transgenic Graminaceous Cells and Plants” (priority 2006, published 2009)

Key:
[1] = tested on: wheat embryos derived from mature dried grain of the cultivar Bobwhite; experiment: Effect of D-amino acids on regeneration of wheat from embryos of mature dried grain (Bobwhite); assay type: cell-based, Triticum aestivum; settings: for proportion (%) of explants regenerating after 3 weeks, Average / proportion (%) of explants regenerating after 3 weeks, Experiment number 1 / proportion (%) of explants regenerating after 3 weeks, Experiment number 2 / proportion (%) of explants regenerating after 3 weeks, Experiment number 3: n = 20
Protocol: (§1) A range of concentrations of the D-amino acids D-serine and D-alanine were tested for effects on wheat regeneration and germination from embryos derived from mature dried grain of the cultivar Bobwhite.

[2] = tested on: wheat mature dried grain of the cultivar Ventura; experiment: Effect of D-amino acids on germination of wheat mature dried grain (Ventura); assay type: in vivo; settings: n = 15
Protocol: [Worded in the source for another variant; this variant is reported under the same test.] as §1

[3] = tested on: wheat mature dried grain of the cultivar Bobwhite; experiment: Effect of D-amino acids on germination of wheat mature dried grain (Bobwhite); assay type: in vivo, Triticum aestivum; settings: n = 15
Protocol: as §1

[4] = tested on: wheat embryos derived from mature dried grain of the cultivar Ventura; experiment: Effect of D-amino acids on regeneration of wheat from embryos of mature dried grain (Ventura); assay type: cell-based; settings: n = 20

Structure (SMILES): N[C@H](CO)C(=O)O [D-serine]
- proportion (%) of explants regenerating after 3 weeks, Average ([1]; 0.5 mM): 28%
- proportion (%) of explants regenerating after 3 weeks, Experiment number 1 ([1]; 0.5 mM): 45%
- proportion (%) of explants regenerating after 3 weeks, Experiment number 2 ([1]; 0.5 mM): 33%
- proportion (%) of explants regenerating after 3 weeks, Experiment number 3 ([1]; 0.5 mM): 5%
- proportion (%) of explants regenerating after 3 weeks, Average ([1]; 1 mM): 23%
- proportion (%) of explants regenerating after 3 weeks, Experiment number 1 ([1]; 1 mM): 30%
- proportion (%) of explants regenerating after 3 weeks, Experiment number 2 ([1]; 1 mM): 33%
- proportion (%) of explants regenerating after 3 weeks, Experiment number 3 ([1]; 1 mM): 5%
- proportion (%) of explants regenerating after 3 weeks, Average ([1]; 5 mM): 8%
- proportion (%) of explants regenerating after 3 weeks, Experiment number 1 ([1]; 5 mM): 10%
- proportion (%) of explants regenerating after 3 weeks, Experiment number 2 ([1]; 5 mM): 10%
- proportion (%) of explants regenerating after 3 weeks, Experiment number 3 ([1]; 5 mM): 5%
- proportion (%) of explants regenerating after 3 weeks, Average ([1]; 7.5 mM): 3%
- proportion (%) of explants regenerating after 3 weeks, Experiment number 1 ([1]; 7.5 mM): 0%
- proportion (%) of explants regenerating after 3 weeks, Experiment number 2 ([1]; 7.5 mM): 5%
- proportion (%) of explants regenerating after 3 weeks, Experiment number 3 ([1]; 7.5 mM): 5%
- proportion (%) of explants regenerating after 3 weeks, Average ([1]; 10 mM): 0%
- proportion (%) of explants regenerating after 3 weeks, Experiment number 1 ([1]; 10 mM): 0%
- proportion (%) of explants regenerating after 3 weeks, Experiment number 2 ([1]; 10 mM): 0%
- proportion (%) of explants regenerating after 3 weeks, Experiment number 3 ([1]; 10 mM): 0%
- proportion (%) of explants regenerating after 3 weeks, Average ([1]; 30 mM): 0%
- proportion (%) of explants regenerating after 3 weeks, Experiment number 1 ([1]; 30 mM): 0%
- proportion (%) of explants regenerating after 3 weeks, Experiment number 2 ([1]; 30 mM): 0%
- proportion (%) of explants regenerating after 3 weeks, Experiment number 3 ([1]; 30 mM): 0%
- levels that reduced the regeneration and germination of wheat plants ([1]; regeneration and germination (Tables 4 and 5)): greater than 7.5 mM
- germination: proportion (%) of explants regenerating after 1 week, Average ([2]; 0.5 mM): 70%
- germination: proportion (%) of explants regenerating after 1 week, Experiment number 1 ([2]; 0.5 mM): 65%
- germination: proportion (%) of explants regenerating after 1 week, Experiment number 2 ([2]; 0.5 mM): 60%
- germination: proportion (%) of explants regenerating after 1 week, Experiment number 3 ([2]; 0.5 mM): 85%
- germination: proportion (%) of explants regenerating after 1 week, Average ([2]; 1 mM): 68%
- germination: proportion (%) of explants regenerating after 1 week, Experiment number 1 ([2]; 1 mM): 70%
- germination: proportion (%) of explants regenerating after 1 week, Experiment number 2 ([2]; 1 mM): 70%
- germination: proportion (%) of explants regenerating after 1 week, Experiment number 3 ([2]; 1 mM): 65%
- germination: proportion (%) of explants regenerating after 1 week, Average ([2]; 5 mM): 53%
- germination: proportion (%) of explants regenerating after 1 week, Experiment number 1 ([2]; 5 mM): 60%
- germination: proportion (%) of explants regenerating after 1 week, Experiment number 2 ([2]; 5 mM): 45%
- germination: proportion (%) of explants regenerating after 1 week, Average ([2]; 7.5 mM): 23%
- germination: proportion (%) of explants regenerating after 1 week, Experiment number 1 ([2]; 7.5 mM): 15%
- germination: proportion (%) of explants regenerating after 1 week, Experiment number 2 ([2]; 7.5 mM): 20%
- germination: proportion (%) of explants regenerating after 1 week, Experiment number 3 ([2]; 7.5 mM): 35%
- germination: proportion (%) of explants regenerating after 1 week, Average ([2]; 10 mM): 43%
- germination: proportion (%) of explants regenerating after 1 week, Experiment number 2 ([2]; 10 mM): 30%
- germination: proportion (%) of explants regenerating after 1 week, Experiment number 3 ([2]; 10 mM): 55%
- germination: proportion (%) of explants regenerating after 1 week, Average ([2]; 30 mM): 0%
- germination: proportion (%) of explants regenerating after 1 week, Experiment number 1 ([2]; 30 mM): 0%
- germination: proportion (%) of explants regenerating after 1 week, Experiment number 2 ([2]; 30 mM): 0%
- germination: proportion (%) of explants regenerating after 1 week, Experiment number 3 ([2]; 30 mM): 0%
- proportion (%) of explants germinated after 1 week, Average ([3]; 0.5 mM): 62%
- proportion (%) of explants germinated after 1 week, Experiment Number 1 ([3]; 0.5 mM): 35%
- proportion (%) of explants germinated after 1 week, Experiment Number 2 ([3]; 0.5 mM): 70%
- proportion (%) of explants germinated after 1 week, Experiment Number 3 ([3]; 0.5 mM): 80%
- proportion (%) of explants germinated after 1 week, Average ([3]; 1 mM): 57%
- proportion (%) of explants germinated after 1 week, Experiment Number 1 ([3]; 1 mM): 30%
- proportion (%) of explants germinated after 1 week, Experiment Number 2 ([3]; 1 mM): 80%
- proportion (%) of explants germinated after 1 week, Experiment Number 3 ([3]; 1 mM): 60%
- proportion (%) of explants germinated after 1 week, Average ([3]; 5 mM): 38%
- proportion (%) of explants germinated after 1 week, Experiment Number 1 ([3]; 5 mM): 20%
- proportion (%) of explants germinated after 1 week, Experiment Number 2 ([3]; 5 mM): 70%
- proportion (%) of explants germinated after 1 week, Experiment Number 3 ([3]; 5 mM): 25%
- proportion (%) of explants germinated after 1 week, Average ([3]; 7.5 mM): 32%
- proportion (%) of explants germinated after 1 week, Experiment Number 1 ([3]; 7.5 mM): 10%
- proportion (%) of explants germinated after 1 week, Experiment Number 2 ([3]; 7.5 mM): 60%
- proportion (%) of explants germinated after 1 week, Experiment Number 3 ([3]; 7.5 mM): 25%
- proportion (%) of explants germinated after 1 week, Average ([3]; 10 mM): 18%
- proportion (%) of explants germinated after 1 week, Experiment Number 1 ([3]; 10 mM): 0%
- proportion (%) of explants germinated after 1 week, Experiment Number 2 ([3]; 10 mM): 35%
- proportion (%) of explants germinated after 1 week, Experiment Number 3 ([3]; 10 mM): 20%
- proportion (%) of explants germinated after 1 week, Average ([3]; 30 mM): 0%
- proportion (%) of explants germinated after 1 week, Experiment Number 1 ([3]; 30 mM): 0%
- proportion (%) of explants germinated after 1 week, Experiment Number 2 ([3]; 30 mM): 0%
- proportion (%) of explants germinated after 1 week, Experiment Number 3 ([3]; 30 mM): 0%
- proportion (%) of explants regenerating after 3 weeks, Average ([4]; 0.5 mM): 10%
- proportion (%) of explants regenerating after 3 weeks, Experiment number 1 ([4]; 0.5 mM): 10%
- proportion (%) of explants regenerating after 3 weeks, Experiment number 2 ([4]; 0.5 mM): 15%
- proportion (%) of explants regenerating after 3 weeks, Experiment number 3 ([4]; 0.5 mM): 5%
- proportion (%) of explants regenerating after 3 weeks, Average ([4]; 1 mM): 7%
- proportion (%) of explants regenerating after 3 weeks, Experiment number 1 ([4]; 1 mM): 10%
- proportion (%) of explants regenerating after 3 weeks, Experiment number 2 ([4]; 1 mM): 5%
- proportion (%) of explants regenerating after 3 weeks, Experiment number 3 ([4]; 1 mM): 5%
- proportion (%) of explants regenerating after 3 weeks, Average ([4]; 5 mM): 5%
- proportion (%) of explants regenerating after 3 weeks, Experiment number 1 ([4]; 5 mM): 5%
- proportion (%) of explants regenerating after 3 weeks, Experiment number 2 ([4]; 5 mM): 5%
- proportion (%) of explants regenerating after 3 weeks, Average ([4]; 7.5 mM): 0%
- proportion (%) of explants regenerating after 3 weeks, Experiment number 1 ([4]; 7.5 mM): 0%
- proportion (%) of explants regenerating after 3 weeks, Experiment number 2 ([4]; 7.5 mM): 0%
- proportion (%) of explants regenerating after 3 weeks, Experiment number 3 ([4]; 7.5 mM): 0%
- proportion (%) of explants regenerating after 3 weeks, Average ([4]; 10 mM): 0%
- proportion (%) of explants regenerating after 3 weeks, Experiment number 1 ([4]; 10 mM): 0%
- proportion (%) of explants regenerating after 3 weeks, Experiment number 2 ([4]; 10 mM): 0%
- proportion (%) of explants regenerating after 3 weeks, Experiment number 3 ([4]; 10 mM): 0%
- proportion (%) of explants regenerating after 3 weeks, Average ([4]; 30 mM): 0%
- proportion (%) of explants regenerating after 3 weeks, Experiment number 1 ([4]; 30 mM): 0%
- proportion (%) of explants regenerating after 3 weeks, Experiment number 2 ([4]; 30 mM): 0%
- proportion (%) of explants regenerating after 3 weeks, Experiment number 3 ([4]; 30 mM): 0%
